Results reported in patent US20230277554A1, “COMPOSITION CONTAINING NICKEL-SUPEROXIDE DISMUTASE AND THE LIKE USEFUL FOR HAIRCARE” (priority 2020, published 2023).

Tested on: Cutibacterium acnes
Test: Cutibacterium acnes growth inhibition
Format: cell-based
Procedure: Cutibacterium acnes is a troublesome anaerobic pathogen. TUN-828® has the function of forming oxygen internally, so we tried to explore whether such a mechanism can inhibit the growth of Cutibacterium acnes and thereby promote the formation of Staphylococcus epidermidis thus form a micro-ecological environment beneficial to the scalp. […] In 24 hours, TUN-828® can inhibit more than 93% Cutibacterium acnes and more than 99% in 48 hr.

With “Nickel Bis (Hydroxy Diphenyl MethyIPyrrolidino Methy) Pyridinediy1 t-Butylisocyano Perchlorate [TUN-828®]” the “inhibition of Cutibacterium acnes” value (24 hours) was “more than 93%” and the “inhibition of Cutibacterium acnes” value (48 hr) was “more than 99%”.
